Measurements as given in US20090311237A1, “Combination therapy using a soluble hyaluronidase and a bisphosphonate” (priority 2008, published 2009).
Where two headings read alike, the source gives them in different places.

Experiment: Phase 1 Stage 1 clinical pharmacokinetics of SC ZA co-administered with rHuPH20
Type: in vivo, human
Settings: human, serum, sc, serum; for concentration at 6 h: 6 h post infusion; for concentration at 8 h: 8 h post infusion; for concentration at 12 h: 12 h post infusion; for concentration at 0 h: 0 h post infusion; for concentration at 10 min: 10 min post infusion; for concentration at 0.5 h: 0.5 h post infusion; for concentration at 1 h: 1 h post infusion; for concentration at 2 h: 2 h post infusion; for concentration at 4 h: 4 h post infusion; for concentration at 24 h: 24 h post infusion; for concentration at 48 h: 48 h post infusion
Method: A pharmacokinetic study of zoledronic acid (ZA) co-administered with rHuPH20 in human subjects was conducted. The primary objective of the study was to determine the bioavailability of zoledronic acid dosed via subcutaneous (SC) co-administration with human recombinant hyaluronidase PH20 (rHuPH20). […] The patients were administered the prescribed dosage formulations as follows: Cohorts 1-5 were administered a single subcutaneous infusion in a dosage volume of 100 ml at a rate of 3 mL/min. […] The dosing solution is administered via needle or catheter into the SC space of the left anterior thigh (midway between the anterior iliac crest and the cephalad border of the patella). For cohorts 1-5, the dosing solutions were administered by a controlled rate infusion pump at approximately 3 mL/minute. […] The dosing solutions were administered by syringe push bolus injection. […] Serum concentration of ZA was determined using a qualified LC-MS-MS assay after derivatization with diazomethane (Zhu, L S et al. (2006) Rapid Commun. […] The assay range was from 2.0 to 400 ng/mL with a lower limit of quantitation (LLOQ) at 2.0 ng/mL. […] Non-compartmental analysis was used for derivation of primary and secondary pharmacokinetic (PK) parameters. […] Summary statistics (mean, standard deviation, and median) were calculated using JMP or Microsoft Excel.

[1] = ZA 0.5 mg SC infusion + 24000 Units rHuPH20, n=3, read-out: Median Conc.
[2] = ZA 0.5 mg SC infusion + 24000 Units rHuPH20, individual subjects, read-out: Zoledronic Acid Concentration
[3] = ZA 0.5 mg SC infusion + 24000 Units rHuPH20, n=3, read-out: Mean Conc.
[4] = ZA 1 mg SC infusion + 24000 Units rHuPH20, individual subjects, read-out: Zoledronic Acid Concentration
[5] = ZA 1 mg SC infusion + 24000 Units rHuPH20, n=3, read-out: Mean Conc.
[6] = ZA 1 mg SC infusion + 24000 Units rHuPH20, n=3, read-out: Median Conc.
[7] = ZA 2 mg SC infusion + 24000 Units rHuPH20, individual subjects, read-out: Zoledronic Acid Concentration
[8] = ZA 2 mg SC infusion + 24000 Units rHuPH20, n=3, read-out: Mean Conc.
[9] = ZA 2 mg SC infusion + 24000 Units rHuPH20, n=3, read-out: Median Conc.
[10] = ZA 5 mg SC infusion + 24000 Units rHuPH20, n=3, read-out: Mean Conc.
[11] = ZA 5 mg SC infusion + 24000 Units rHuPH20, n=3, read-out: Median Conc.
[12] = ZA 5 mg SC infusion + 24000 Units rHuPH20, individual subjects, read-out: Zoledronic Acid Concentration

O=P(O)(O)C(O)(Cn1ccnc1)P(=O)(O)O [ZA, 1-hydroxy-2-(1H-imidazol-1-yl)ethylidene-1,1-bisphosphonic acid]
concentration at 6 h [1]: 2.53 ng/mL
concentration at 8 h [2]: 1.19 ng/mL
concentration at 8 h [3]: 1.32 ng/mL
concentration at 8 h [1]: 1.34 ng/mL
concentration at 12 h [2]: 0.52 ng/mL
concentration at 12 h [3]: 0.54 ng/mL
concentration at 12 h [1]: 0.55 ng/mL
concentration at 0 h [4]: 28.4 ng/mL
concentration at 0 h [5]: 20.5 ng/mL
concentration at 0 h [6]: 17.9 ng/mL
concentration at 10 min [4]: 32.1 ng/mL
concentration at 10 min [5]: 27.2 ng/mL
concentration at 10 min [6]: 25 ng/mL
concentration at 0.5 h [4]: 33.4 ng/mL
concentration at 0.5 h [5]: 28.1 ng/mL
concentration at 0.5 h [6]: 28 ng/mL
concentration at 1 h [4]: 29.9 ng/mL
concentration at 1 h [5]: 25.5 ng/mL
concentration at 1 h [6]: 27.2 ng/mL
concentration at 2 h [4]: 24 ng/mL
concentration at 2 h [5]: 19.6 ng/mL
concentration at 2 h [6]: 17.7 ng/mL
concentration at 4 h [4]: 13.3 ng/mL
concentration at 4 h [5]: 10.3 ng/mL
concentration at 4 h [6]: 10.2 ng/mL
concentration at 6 h [4]: 5.48 ng/mL
concentration at 6 h [5]: 4.9 ng/mL
concentration at 6 h [6]: 5.47 ng/mL
concentration at 8 h [4]: 2.44 ng/mL
concentration at 8 h [5]: 2.69 ng/mL
concentration at 8 h [6]: 2.46 ng/mL
concentration at 12 h [4]: 1.02 ng/mL
concentration at 12 h [5]: 1.09 ng/mL
concentration at 12 h [6]: 1.02 ng/mL
concentration at 24 h [4]: 0.56 ng/mL
concentration at 24 h [5]: 0.52 ng/mL
concentration at 24 h [6]: 0.51 ng/mL
concentration at 0 h [7]: 33.3 ng/mL
concentration at 0 h [8]: 37.9 ng/mL
concentration at 0 h [9]: 39.6 ng/mL
concentration at 10 min [7]: 52.5 ng/mL
concentration at 10 min [8]: 48.3 ng/mL
concentration at 10 min [9]: 46.3 ng/mL
concentration at 0.5 h [7]: 59.8 ng/mL
concentration at 0.5 h [8]: 51.9 ng/mL
concentration at 0.5 h [9]: 48.6 ng/mL
concentration at 1 h [7]: 57.7 ng/mL
concentration at 1 h [8]: 56.5 ng/mL
concentration at 1 h [9]: 57.7 ng/mL
concentration at 2 h [7]: 42.5 ng/mL
concentration at 2 h [8]: 41.6 ng/mL
concentration at 2 h [9]: 42.2 ng/mL
concentration at 4 h [7]: 17.5 ng/mL
concentration at 4 h [8]: 20.3 ng/mL
concentration at 4 h [9]: 20.3 ng/mL
concentration at 6 h [7]: 6.43 ng/mL
concentration at 6 h [8]: 7.69 ng/mL
concentration at 6 h [9]: 7.71 ng/mL
concentration at 8 h [7]: 3.15 ng/mL
concentration at 8 h [8]: 3.77 ng/mL
concentration at 8 h [9]: 3.34 ng/mL
concentration at 12 h [7]: 1.5 ng/mL
concentration at 12 h [8]: 1.74 ng/mL
concentration at 12 h [9]: 1.64 ng/mL
concentration at 24 h [7]: 0.78 ng/mL
concentration at 24 h [8]: 0.87 ng/mL
concentration at 24 h [9]: 0.85 ng/mL
concentration at 48 h [7]: 0.62 ng/mL
concentration at 48 h [8]: 0.21 ng/mL
concentration at 0 h [10]: 88.6 ng/mL
concentration at 0 h [11]: 82.3 ng/mL
concentration at 10 min [12]: 121 ng/mL
concentration at 10 min [10]: 110 ng/mL
concentration at 10 min [11]: 121 ng/mL
concentration at 0.5 h [12]: 130 ng/mL
concentration at 0.5 h [10]: 125 ng/mL
concentration at 0.5 h [11]: 130 ng/mL
concentration at 1 h [12]: 124 ng/mL
concentration at 1 h [10]: 118 ng/mL
concentration at 1 h [11]: 116 ng/mL
concentration at 2 h [12]: 83.5 ng/mL
concentration at 2 h [10]: 86.6 ng/mL
concentration at 2 h [11]: 86.5 ng/mL
concentration at 4 h [12]: 45.6 ng/mL
concentration at 4 h [10]: 50 ng/mL
concentration at 4 h [11]: 45.6 ng/mL
concentration at 6 h [12]: 20.3 ng/mL
concentration at 6 h [10]: 23.5 ng/mL
